Data on 32 compounds can be found in patent US8329726B2, “Inhibitors of VEGF receptor and HGF receptor signaling” (MethylGene Inc., priority 2005, dated 2012).

The target in one experiment is T1, VEGF receptor KDR (Homo sapiens, UniProt P35968).
T1 construct: made in house; host or cells: Sf9 cells (Spodoptera frugiperda), baculovirus
The experiment in a line: In vitro receptor tyrosine kinase assay (DELFIA), VEGF receptor KDR. The class given is biochemical. As to conditions: read-out: VEGFR IC50. On the procedure:
In the case of VEGF receptor KDR a 1.6-kb cDNA corresponding to the catalytic domain of VEGFR2 or KDR (Genbank accession number AF035121 amino acid 806 to 1356) was cloned into the Pst I site of the pDEST20 Gateway vector (Invitrogen) for the production of a GST-tagged version of that enzyme.
The GST-VEGFR2806-1356 protein was expressed in […] (Spodoptera frugiperda) upon infection with recombinant baculovirus construct. […] Cell pellets were frozen at −80° C. until purification was performed.
The supernatant (cell extract) was used as starting material for purification of GST-VEGFR2806-1356.
The supernatant was loaded onto a GST-agarose column (Sigma) equilibrated with PBS pH 7.3. Following a four column volume (CV) wash with PBS pH 7.3+1% Triton X-100 and 4 CV wash with buffer B (50 mM Tris pH 8.0, 20% glycerol and 100 mM NaCl), bound proteins were step eluted with 5 CV of buffer B supplemented with 5 mM DTT and 15 mM glutathion. GST-VEGFR2806-1356 enriched fractions from this chromatography step were pooled based on U.V. trace i.e. fractions with high O.D.280. Final GST-VEGFR2806-1356 protein preparations concentrations were about 0.7 mg/ml with purity approximating 70%.
(§1) The coated plates were washed and stored at 4° C. […] After incubation, the kinase reactions were quenched with EDTA and the plates were washed.

For experiment [1], the target named is T2, recombinant human c-Met/HGF receptor (Homo sapiens, UniProt P08581).
T2 construct: His tag (pBlueBacHis2A vector); made in house; host or cells: Hi-5 cells (Trichoplusia ni), baculovirus
The experiment in a line: In vitro receptor tyrosine kinase assay (DELFIA), c-Met/HGF receptor. The class given is biochemical. The note with it: read-out: CMET IC50. How it is done:
Cell pellets were frozen at −80° C. until purification was performed.
as §1

The subject of a further experiment is A549. The experiment in a line: A549 wound healing inhibition (HGF dependent migration). The class given is cell-based. As to conditions: Homo sapiens, A549 cells, read-out: A549 WOUND HEALING INHIB IC50. The text has this: (§2) HGF has well known activity in terms of inducing scattering and migration (wound healing) (Wells et al., Cell Motil Cytoskeleton. 2005 November 62(3):180-94; Miura et al., Urology 2001 December 58(6):1064-9; Nishimura et al., Int J Urol. 1998 May 5(3):276-81; Wang et al., Mol Cancer Ther. 2003 November; 2(11):1085-92; and Christensen et al., Cancer Res. 2003 Nov. 1; 63(21):7345-55).

For a further experiment, the system named is DU145. Kind of experiment: DU145 scattering inhibition (HGF dependent scattering). The experiment is classed as cell-based. The note with it: Homo sapiens, DU-145; HGF dependent scattering, DU145 cells; read-out: DU145 SCATTERING INHIB IC50.
Source text: as §2

Molecules are shown by their SMILES.

T1 sequence (P35968 806-1356): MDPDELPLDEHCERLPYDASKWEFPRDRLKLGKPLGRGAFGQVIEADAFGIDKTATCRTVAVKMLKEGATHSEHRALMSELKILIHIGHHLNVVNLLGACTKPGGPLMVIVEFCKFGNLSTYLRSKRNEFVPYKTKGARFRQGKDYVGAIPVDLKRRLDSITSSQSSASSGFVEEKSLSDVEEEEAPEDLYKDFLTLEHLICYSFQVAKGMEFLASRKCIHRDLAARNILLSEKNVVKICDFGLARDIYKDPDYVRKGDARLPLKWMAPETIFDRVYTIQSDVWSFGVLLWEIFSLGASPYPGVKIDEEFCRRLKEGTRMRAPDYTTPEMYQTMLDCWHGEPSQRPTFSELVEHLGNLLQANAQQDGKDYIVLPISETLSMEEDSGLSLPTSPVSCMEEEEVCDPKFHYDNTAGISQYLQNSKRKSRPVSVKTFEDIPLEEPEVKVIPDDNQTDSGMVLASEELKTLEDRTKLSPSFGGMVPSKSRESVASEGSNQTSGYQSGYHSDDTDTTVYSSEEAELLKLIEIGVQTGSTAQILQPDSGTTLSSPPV
T2 sequence (P08581 1078-1337): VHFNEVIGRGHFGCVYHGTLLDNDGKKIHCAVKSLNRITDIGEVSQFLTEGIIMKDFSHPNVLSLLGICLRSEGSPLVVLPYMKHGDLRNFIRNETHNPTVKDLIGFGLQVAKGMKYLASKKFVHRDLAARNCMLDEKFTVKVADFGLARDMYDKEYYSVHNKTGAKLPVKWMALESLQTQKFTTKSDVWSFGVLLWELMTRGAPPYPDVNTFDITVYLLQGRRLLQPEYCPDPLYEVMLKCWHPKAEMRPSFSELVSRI

The term IC50 denotes the concentration at which inhibition is half-maximal. For the compound `CN1CCN(CCN(C)Cc2cccc(-c3cc4nccc(Oc5ccc(NC(=O)CC(=O)N(C)c6ccccc6)cc5F)c4s3)c2)CC1`, the concentration for half-maximal inhibition (IC50) at VEGF receptor KDR was less than 0.05 µM; in experiment [1], 0.05 to 0.25 µM; with A549 it was less than 1 µM; with DU145, less than 1 µM.
With `CCn1cnc(-c2cc3nccc(Oc4ccc(NC(=O)CC(=O)Nc5ccccc5)cc4F)c3s2)c1C`, the IC50 at VEGF receptor KDR is less than 0.05 µM; in experiment [1], less than 0.05 µM; in the experiment with A549, less than 1 µM; with DU145 it was less than 1 µM.
Consider `COc1ccccc1NC(=O)CC(=O)Nc1ccc(Oc2ccnc3cc(-c4c[nH]cn4)sc23)c(F)c1`, for which the half-inhibitory concentration (IC50) on VEGF receptor KDR was 0.05 to 0.25 µM; in experiment [1] it was 0.05 to 0.25 µM; in the experiment with A549, less than 1 µM; in the experiment with DU145 it was less than 1 µM.
As to `CN1CCN(CCN(C)Cc2ccc(-c3cc4nccc(Oc5ccc(NC(=O)CC(=O)Nc6ccccc6)cc5F)c4s3)cc2)CC1` [drawing 351], the IC50 on VEGF receptor KDR is less than 0.05 µM; in experiment [1], less than 0.05 µM; in the experiment on A549, less than 1 µM; with DU145, less than 1 µM.
Take `CCn1cnc(-c2cc3nccc(Oc4ccc(NC(=O)CC(=O)Nc5ccccc5F)cc4F)c3s2)c1` [drawing 293]: the 50% inhibitory concentration (IC50) is less than 0.05 µM at VEGF receptor KDR, less than 0.05 µM in experiment [1], less than 1 µM with A549 and less than 1 µM in the experiment with DU145.
On to `CCn1cnc(-c2cc3nccc(Oc4ccc(NC(=O)CC(=O)Nc5ccccc5OC)cc4F)c3s2)c1` [drawing 292], for which the IC50 is less than 0.05 µM at VEGF receptor KDR, less than 0.05 µM in experiment [1], 1 to 5 µM with A549 and less than 1 µM in the experiment with DU145.
Take `O=C(Nc1ccc(Nc2ccnc3cc(-c4cn(CCN5CCCC5)cn4)sc23)c(F)c1)N1CCN(c2ccccc2)C1=O`: the concentration for half-maximal inhibition (IC50) on VEGF receptor KDR is 0.25 to 0.5 µM; in experiment [1], less than 0.05 µM; in the experiment with A549, more than 10 µM; in the experiment on DU145 it was more than 10 µM.
Take `CN(C)[C@H]1CCN(Cc2ccc(-c3cc4nccc(Oc5ccc(NC(=O)CC(=O)Nc6ccccc6)cc5F)c4s3)cc2)C1`: the IC50 is less than 0.05 µM on VEGF receptor KDR, 0.05 to 0.25 µM in experiment [1], 1 to 5 µM in the experiment with A549 and less than 1 µM with DU145.
Consider `Cn1cnc(-c2cc3nccc(Oc4ccc(NC(=O)N5CCN(C6CCCCC6)C5=O)cc4F)c3s2)c1`, for which the IC50 is less than 0.05 µM on VEGF receptor KDR, less than 0.05 µM in experiment [1], 1 to 5 µM with A549 and less than 1 µM with DU145.
On to `O=C1N(C(=S)Nc2ccc(Oc3ccnc4cc(-c5cn(CCN6CCCC6)cn5)sc34)c(F)c2)CCN1c1ccc(F)cc1`, for which the half-maximal inhibitory concentration (IC50) is less than 0.05 µM at VEGF receptor KDR, less than 0.05 µM in experiment [1], less than 1 µM in the experiment on A549 and less than 1 µM in the experiment with DU145.
In the case of `Cn1ccnc1-c1cc2nccc(Oc3ccc(NC(=O)CS(=O)(=O)c4ccc(F)cc4)cc3F)c2s1`, the IC50 on VEGF receptor KDR is 0.05 to 0.25 µM; in experiment [1], 0.25 to 0.5 µM; in the experiment on A549, 1 to 5 µM; in the experiment with DU145 it was 1 to 5 µM.
Consider `Cn1ccnc1-c1cc2nccc(Oc3ccc(NC(=O)CC(=O)OC4CCNCC4)cc3F)c2s1`, for which the IC50 at VEGF receptor KDR is more than 0.5 µM; in experiment [1] it was more than 0.5 µM; in the experiment on A549, more than 10 µM; with DU145, more than 10 µM.
Turning to `CN1CCN(C(=O)C2(C(=O)Nc3ccc(Oc4ccnc5cc(-c6cn(C)cn6)sc45)c(F)c3)CC2)c2ccccc21`, the IC50 on VEGF receptor KDR is less than 0.05 µM; in experiment [1] it was more than 0.5 µM; in the experiment on A549, 1 to 5 µM; in the experiment on DU145, 1 to 5 µM.
Regarding `COCCNCc1ccc(-c2cc3nccc(Oc4ccc(NC(=O)N5CCN(c6ccccc6)C5=O)cc4F)c3s2)cc1`, the IC50 on VEGF receptor KDR is less than 0.05 µM; in experiment [1], less than 0.05 µM; with A549 it was less than 1 µM; in the experiment with DU145 it was less than 1 µM.
Take `COc1ccccc1NC(=O)CC(=O)Nc1ccc(Oc2ccnc3cc(-c4cn(CCN(C)C)cn4)sc23)c(F)c1`: the 50% inhibitory concentration (IC50) is less than 0.05 µM at VEGF receptor KDR, 0.05 to 0.25 µM in experiment [1], less than 1 µM in the experiment on A549 and less than 1 µM in the experiment on DU145.
On to `CN(c1ccc(NC(=O)C2(C(=O)Nc3ccccc3)CC2)cc1F)c1ccnc2ccsc12`, for which the IC50 at VEGF receptor KDR was more than 0.5 µM; in experiment [1], 0.25 to 0.5 µM; in the experiment on A549 it was 1 to 5 µM; with DU145, 1 to 5 µM.
In the case of `CCn1cnc(-c2cc3nccc(Oc4ccc(NC(=O)N5CCN(c6ccccc6F)C5=O)cc4F)c3s2)c1`, the concentration for half-maximal inhibition (IC50) on VEGF receptor KDR is less than 0.05 µM; in experiment [1], less than 0.05 µM; in the experiment with A549, less than 1 µM; in the experiment on DU145, less than 1 µM.
As for `Cn1cnc(-c2cc3nccc(Nc4ccc(NC(=O)C5(C(=O)Nc6ccccc6)CC5)cc4F)c3s2)c1`, the 50% inhibitory concentration (IC50) on VEGF receptor KDR is 0.05 to 0.25 µM; in experiment [1], less than 0.05 µM; with A549, less than 1 µM; in the experiment with DU145, less than 1 µM.
On to `CN1CC=C(c2cc3nccc(Oc4ccc(NC(=O)CC(=O)N(C)c5ccccc5)cc4F)c3s2)CC1`, for which the half-maximal inhibitory concentration (IC50) on VEGF receptor KDR is 0.05 to 0.25 µM; in experiment [1], less than 0.05 µM; with A549, 1 to 5 µM; in the experiment with DU145 it was 1 to 5 µM.
On to `CN(C(=O)CC(=O)Nc1ccc(Oc2ccnc3cc(C(=O)N(C)N(C)C)sc23)c(F)c1)c1ccccc1`, for which the IC50 on VEGF receptor KDR was more than 0.5 µM; in experiment [1], 0.25 to 0.5 µM; with A549, more than 10 µM; with DU145, more than 10 µM.
With `CN1CCN(CCN(C)Cc2ccc(-c3cc4nccc(Oc5ccc(NC(=O)C6CCN(c7ccccc7)C6=O)cc5F)c4s3)cc2)CC1` (centres unmarked), the IC50 is less than 0.05 µM at VEGF receptor KDR, less than 0.05 µM in experiment [1], 1 to 5 µM in the experiment with A549 and less than 1 µM with DU145.
Turning to `COc1ccccc1CCNC(=O)C(=O)Nc1ccc(Oc2ccnc3cc(-c4ccc(OCCN5CCOCC5)c(OC)c4)sc23)c(F)c1`, the IC50 on VEGF receptor KDR was more than 0.5 µM; in experiment [1], 0.25 to 0.5 µM; in the experiment with A549, 1 to 5 µM; in the experiment with DU145 it was more than 10 µM.
Taken in the same sequence, the figures for `CN(C)CCn1cnc(-c2cc3nccc(Oc4ccc(NC(=O)CC(=O)N(C)c5ccccc5)cc4F)c3s2)c1` were less than 0.05 µM, less than 0.05 µM, less than 1 µM and less than 1 µM.
The corresponding values for `CN(C)CCn1cnc(-c2cc3nccc(Oc4ccc(NC(=O)C5(C(=O)Nc6ccccc6F)CC5)cc4F)c3s2)c1` are less than 0.05 µM, less than 0.05 µM, less than 1 µM and less than 1 µM.
As for `O=C(Cn1cnc(-c2cc3nccc(Oc4ccc(NC(=O)CC(=O)Nc5ccccc5)cc4F)c3s2)c1)NCCCN1CCCC1`, the half-maximal inhibitory concentration (IC50) is less than 0.05 µM on VEGF receptor KDR, less than 0.05 µM in experiment [1], 1 to 5 µM in the experiment with A549 and 5 to 10 µM in the experiment on DU145.
With `O=C(Nc1ccc(Oc2ccnc3cc(-c4cn(CCCN5CCCC5)cn4)sc23)c(F)c1)C1(C(=O)Nc2ccccc2F)CC1`, the IC50 on VEGF receptor KDR is less than 0.05 µM; in experiment [1], less than 0.05 µM; with A549, less than 1 µM; in the experiment on DU145 it was less than 1 µM.
For the compound `COc1ccccc1NC(=O)CC(=O)Nc1ccc(Oc2ccnc3cc(-c4ccc(CN5CCCC5)cc4)sc23)c(F)c1` [drawing 295], the concentration for half-maximal inhibition (IC50) on VEGF receptor KDR was less than 0.05 µM; in experiment [1], 0.05 to 0.25 µM; in the experiment on A549, 1 to 5 µM; in the experiment on DU145, less than 1 µM.
Consider `COc1ccccc1CCNC(=O)C(=O)Nc1ccc(Oc2ccnc3cc(-c4cn(C)cn4)sc23)c(F)c1`, for which the IC50 is less than 0.05 µM at VEGF receptor KDR, 0.25 to 0.5 µM in experiment [1], 5 to 10 µM in the experiment with A549 and more than 10 µM in the experiment on DU145.
Taken in the same sequence, the figures for `CCn1cnc(-c2cc3nccc(Oc4ccc(NC(=O)C5(C(=O)Nc6ccccc6F)CC5)cc4F)c3s2)c1` were less than 0.05 µM, less than 0.05 µM, less than 1 µM and less than 1 µM.
The corresponding values for `COc1ccccc1NC(=O)CC(=O)Nc1ccc(Oc2ccnc3cc(-c4cncn4C)sc23)c(F)c1` [drawing 289] are less than 0.05 µM, less than 0.05 µM, 1 to 5 µM and 1 to 5 µM.
For the compound `CN(C)CCn1cnc(-c2cc3nccc(Oc4ccc(NC(=O)CC(=O)Nc5ccccc5F)cc4F)c3s2)c1`, the half-inhibitory concentration (IC50) on VEGF receptor KDR is less than 0.05 µM; in experiment [1] it was less than 0.05 µM; in the experiment on A549 it was less than 1 µM; in the experiment with DU145, less than 1 µM.
Regarding `CC(C)n1cnc(-c2cc3nccc(Oc4ccc(NC(=O)C5CCN(c6ccccc6)C5=O)cc4F)c3s2)c1` (centres unmarked), the IC50 is less than 0.05 µM at VEGF receptor KDR, less than 0.05 µM in experiment [1], less than 1 µM in the experiment with A549 and less than 1 µM in the experiment with DU145.
